Assays:
UCP3 = UCP3 RNA induction in rat L6 cells (QPCR); assay type: cell-based; set-up: key to UCP3 RNA induction, Induction at 10 μM: ++ denotes greater than 10-fold induction; + denotes 10-fold or less induction; — denotes no induction
Protocol: Table 1 provides QPCR data (ABI 7700 Sequence Detection System) for exemplary compounds of formula I evaluated for UCP3 RNA induction in L6 cells from rats. The assay is described in Example 14.4, below.
Rat UCP3 (L6 cells) QPCR Protocol
1. (Day1) Plate 300,000 L6 cells per well (24 well plate) in Minimum Essential Medium-Alpha Medium with 2% FBS and Antibiotic/Antimycotic Solution added. Incubate for 2 days and change to fresh medium (Day3). Incubate 1 more day.
2. (Day 4) Add compound at desired concentration. Incubate for 18-20 h. 2 wells per compound. 4-wells of DMSO controls per plate.
3. (Day 5) Prepare RNA from cells: • (1) Aspirate media and lyse cells directly on plate by adding 500 μL of Trizol Reagent (Gibco BRL) to each well and passing the lysate several times through a pipette. Transfer lysate to eppendorf tubes (combining the lysate from identical compound treatments). • (2) Add 200 μL of chloroform to the 1 mL of lysate. Vortex to mix and incubate at room temp. for 2-3 min. Spin samples in a microfuge at 12,000 rpm for 15 min. at 4° C. • (3) Transfer the aqueous phase to a fresh tube. Precipitate the RNA from the aqueous phase by adding 500 μL of isopropanol and mixing well. Incubate at −20° C. for at least 15 min. Pellet the RNA by spinning at 12,000 rpm for 10 min. at 4° C. • (4) Remove the supernatant and wash the RNA pellet with 500 μL of 75% ethanol. Spin at 10,000 rpm for 5 min. at 4° C. • (5) Remove the supernatant and allow pellet to air dry briefly. Dissolve RNA in 15 μL of RNase-free water. Store at −80° C. Electrophorese some RNA to check quality.
4. QPCR (50 μL reactions in 96 well MicroAmp Optical Plate): TaqMan Gold RT-PCR Reagents (PE catalog #N808-0232): OD RNA and dilute to 5 ng/μL in RNase-free water. All samples run in duplicate with UCP3 and m18S probe/primers
Add 40 μL of Reaction Mix to 10 μL of diluted RNA (50 ng total) on QPCR plate PCR Cycling Parameters • 48° C. 30 min. • 95° C. 10 min. • 40 cycles: 95° C. 15 sec. • 58° C. 1.5 min. QPCR Primers/Probes

RXRα = molecular target: T1, RXRα (Homo sapiens, UniProt P19793); experiment: RXRα induction in HEK 293 cells (transient transfection, luciferase reporter); assay type: cell-based
T1 construct: expressed in transfected cells; host or cells: HEK 293 cells
T1 sequence (P19793 1-462): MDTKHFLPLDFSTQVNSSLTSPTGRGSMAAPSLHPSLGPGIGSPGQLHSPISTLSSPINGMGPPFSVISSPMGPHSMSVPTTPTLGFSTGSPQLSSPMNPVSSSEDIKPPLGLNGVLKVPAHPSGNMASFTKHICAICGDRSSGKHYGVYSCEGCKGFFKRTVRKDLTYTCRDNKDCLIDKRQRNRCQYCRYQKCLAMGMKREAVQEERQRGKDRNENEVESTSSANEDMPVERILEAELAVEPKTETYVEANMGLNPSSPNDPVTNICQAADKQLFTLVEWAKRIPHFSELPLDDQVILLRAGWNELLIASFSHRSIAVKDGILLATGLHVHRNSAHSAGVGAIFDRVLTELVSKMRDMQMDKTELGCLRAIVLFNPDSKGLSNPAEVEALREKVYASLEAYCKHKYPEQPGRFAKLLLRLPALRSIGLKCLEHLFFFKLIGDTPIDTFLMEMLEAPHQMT
Protocol: Table 2 provides QPCR data (ABI 7700 Sequence Detection System) for exemplary compounds of formula I evaluated for RXR induction in HEK 293 cells, following a general protocol, briefly described below. See Naeger et al. (1999) J. Biol. Chem. 274:1875-1878 for a related cell-based assay.
DNA constructs containing a luciferase reporter plasmid and another plasmid which contained an activation domain (e.g., RXRα) were transiently transfected into HEK 293 cells. The cells were treated with the compounds and luciferase activity was measured using a luminometer. Fold induction was determined by comparing the luciferase activity of treated cells to the activity of untreated cells.

Cc1c(C(=O)O)cnn1-c1nc(-c2ccc(C(F)(F)F)cc2)cs1 [Compound 2, 1-[4-(4-(Trifluoromethyl)phenyl)thiazol-2-yl]-5-methylpyrazole-4-carboxylic acid]
fold induction at 10 µM (UCP3): > 10
RXRα RNA induction at 1 μM (RXRα): + (+ denotes 5-fold or less induction)
RXRα RNA induction at 3 μM (RXRα): + (+ denotes 5-fold or less induction)
RXRα RNA induction at 10 μM (RXRα): + (+ denotes 5-fold or less induction)
melting point: 273 to 274 °C

Cc1c(C(=O)O)cnn1-c1nc(-c2ccc(Cl)c(Cl)c2)cs1 [Compound 3, 1-[4-(3,4-Dichlorophenyl)thiazol-2-yl]-5-methylpyrazole-4-carboxylic acid]
fold induction at 10 µM (UCP3): > 10
RXRα RNA induction at 1 μM (RXRα): + (+ denotes 5-fold or less induction)
RXRα RNA induction at 3 μM (RXRα): + (+ denotes 5-fold or less induction)
RXRα RNA induction at 10 μM (RXRα): + (+ denotes 5-fold or less induction)
melting point: 278 to 278.6 °C

Cc1c(C(=O)O)cnn1-c1nc(-c2cccc(Cl)c2)cs1 [Compound 4, 1-[4-(3-Chlorophenyl)thiazol-2-yl]-5-methylpyrazole-4-carboxylic acid]
fold induction at 10 µM (UCP3): > 10
melting point: 258 to 258.3 °C

O=C(O)c1cnn(-c2nc(-c3cccc(C(F)(F)F)c3)cs2)c1C(F)(F)F [Compound 5, 1-[4-(3-(Trifluoromethyl)phenyl)thiazol-2-yl]-5-trifluoromethylpyrazole-4-carboxylic acid]
fold induction at 10 µM (UCP3): > 10
RXRα RNA induction at 1 μM (RXRα): + (+ denotes 5-fold or less induction)
RXRα RNA induction at 3 μM (RXRα): + (+ denotes 5-fold or less induction)
RXRα RNA induction at 10 μM (RXRα): + (+ denotes 5-fold or less induction)

O=C(O)c1cnn(-c2nc(-c3cccc(C(F)(F)F)c3)cs2)c1 [Compound 6, 1-[4-(3-(Trifluoromethyl)phenyl)thiazol-2-yl]pyrazole-4-carboxylic acid]
fold induction at 10 µM (UCP3): > 10
melting point: 229.1 to 229.6 °C

Cc1c(C(=O)O)cnn1-c1nc(-c2ccccc2C(F)(F)F)cs1 [Compound 7, 1-[4-(2-(Trifluoromethyl)phenyl)thiazol-2-yl]-5-methylpyrazole-4-carboxylic acid]
fold induction at 10 µM (UCP3): > 10
RXRα RNA induction at 1 μM (RXRα): + (+ denotes 5-fold or less induction)
RXRα RNA induction at 3 μM (RXRα): + (+ denotes 5-fold or less induction)
RXRα RNA induction at 10 μM (RXRα): + (+ denotes 5-fold or less induction)
melting point: 215.5 to 216.5 °C

CCOC(=O)c1cnn(-c2nc(-c3cccc([N+](=O)[O-])c3)cs2)c1C [Compound 8, Ethyl 1-[4-(3-nitrophenyl)thiazol-2-yl]-5-methylpyrazole-4-carboxylate]
UCP3 RNA induction, Induction at 10 μM (UCP3): —
RXRα RNA induction at 1 μM (RXRα): + (+ denotes 5-fold or less induction)
RXRα RNA induction at 3 μM (RXRα): + (+ denotes 5-fold or less induction)
RXRα RNA induction at 10 μM (RXRα): + (+ denotes 5-fold or less induction)

Cc1c(C(=O)O)cnn1-c1nc(-c2ccc3ccccc3c2)cs1 [Compound 9, 1-[4-(2-Naphthyl)thiazol-2-yl]-5-methylpyrazole-4-carboxylic acid]
UCP3 RNA induction, Induction at 10 μM (UCP3): —
RXRα RNA induction at 1 μM (RXRα): + (+ denotes 5-fold or less induction)
RXRα RNA induction at 3 μM (RXRα): + (+ denotes 5-fold or less induction)
RXRα RNA induction at 10 μM (RXRα): + (+ denotes 5-fold or less induction)
melting point: 273.1 to 274.3 °C

Cc1c(C(=O)O)cnn1-c1nc(-c2cc(C(F)(F)F)cc(C(F)(F)F)c2)cs1 [Compound 10, 1-[4-(3,5-Bis(trifluoromethyl)phenyl)thiazol-2-yl]-5-methylpyrazole-4-carboxylic acid]
fold induction at 10 µM (UCP3): ≤ 10
RXRα RNA induction at 1 μM (RXRα): + (+ denotes 5-fold or less induction)
RXRα RNA induction at 3 μM (RXRα): ++ (++ denotes greater than 5-fold induction)
RXRα RNA induction at 10 μM (RXRα): + (+ denotes 5-fold or less induction)
melting point: 260.9 to 261.4 °C

CCOC(=O)c1cnn(-c2nc(-c3cccc(C(F)(F)F)c3)cs2)c1C [Compound 11, Ethyl 1-[4-(3-(trifluoromethyl)phenyl)thiazol-2-yl]-5-methylpyrazole-4-carboxylate]
fold induction at 10 µM (UCP3): ≤ 10
melting point: 138 to 138.5 °C

O=C(O)c1cnn(-c2nc(-c3cccc([N+](=O)[O-])c3)cs2)c1C(F)(F)F [Compound 12, 1-[4-(3-Nitrophenyl)thiazol-2-yl]-5-trifluoromethylpyrazole-4-carboxylic acid]
UCP3 RNA induction, Induction at 10 μM (UCP3): —

O=C(O)c1cnn(-c2nc(-c3cc(C(F)(F)F)cc(C(F)(F)F)c3)cs2)c1C(F)(F)F [Compound 13, 1-[4-(3,5-Bis(trifluoromethyl)phenyl)thiazol-2-yl]-5-(trifluoromethyl)pyrazole-4-carboxylic acid]
fold induction at 10 µM (UCP3): ≤ 10
RXRα RNA induction at 1 μM (RXRα): + (+ denotes 5-fold or less induction)
RXRα RNA induction at 3 μM (RXRα): + (+ denotes 5-fold or less induction)
RXRα RNA induction at 10 μM (RXRα): + (+ denotes 5-fold or less induction)
melting point: 204 to 204.7 °C

COc1cccc(-c2csc(-n3ncc(C(=O)O)c3C)n2)c1 [Compound 14]
RXRα RNA induction at 1 μM (RXRα): ++ (++ denotes greater than 5-fold induction)
RXRα RNA induction at 3 μM (RXRα): ++ (++ denotes greater than 5-fold induction)
RXRα RNA induction at 10 μM (RXRα): ++ (++ denotes greater than 5-fold induction)

CCc1c(C(=O)O)cnn1-c1nc(-c2cccc(C(F)(F)F)c2)cs1 [Compound 15]
RXRα RNA induction at 1 μM (RXRα): + (+ denotes 5-fold or less induction)
RXRα RNA induction at 3 μM (RXRα): ++ (++ denotes greater than 5-fold induction)
RXRα RNA induction at 10 μM (RXRα): + (+ denotes 5-fold or less induction)

O=C(O)c1cnn(-c2nc(-c3cccc(C(F)(F)F)c3)cs2)c1C(=O)O [Compound 16]
RXRα RNA induction at 1 μM (RXRα): + (+ denotes 5-fold or less induction)
RXRα RNA induction at 3 μM (RXRα): + (+ denotes 5-fold or less induction)
RXRα RNA induction at 10 μM (RXRα): + (+ denotes 5-fold or less induction)

Cc1c(C(=O)O)cnn1-c1nc(-c2ccccc2)cs1 [Compound 17]
RXRα RNA induction at 1 μM (RXRα): + (+ denotes 5-fold or less induction)
RXRα RNA induction at 3 μM (RXRα): + (+ denotes 5-fold or less induction)
RXRα RNA induction at 10 μM (RXRα): + (+ denotes 5-fold or less induction)

Cc1c(C(=O)O)cnn1-c1nc(-c2ccc(Cl)cc2)cs1 [Compound 18]
RXRα RNA induction at 1 μM (RXRα): + (+ denotes 5-fold or less induction)
RXRα RNA induction at 3 μM (RXRα): ++ (++ denotes greater than 5-fold induction)
RXRα RNA induction at 10 μM (RXRα): + (+ denotes 5-fold or less induction)

Cc1c(C(=O)O)cnn1-c1nc(-c2ccc(-c3ccccc3)cc2)cs1 [Compound 19]
RXRα RNA induction at 1 μM (RXRα): + (+ denotes 5-fold or less induction)
RXRα RNA induction at 3 μM (RXRα): + (+ denotes 5-fold or less induction)
RXRα RNA induction at 10 μM (RXRα): + (+ denotes 5-fold or less induction)

Cc1c(C(=O)NCCC(=O)O)cnn1-c1nc(-c2cccc(C(F)(F)F)c2)cs1 [Compound 20]
fold induction at 10 µM (UCP3): ≤ 10

— US7358267B2, “Bis-aryl thiazole derivatives” (Amgen Inc., priority 2001, dated 2008)
